In ChEMBL document CHEMBL1201862, “PubChem BioAssay data set” (2004):
Calls of active or inactive are those of the source.

Key:
Protein RecA = target: T1, Protein RecA (Mycobacterium tuberculosis, UniProt P9WHJ3); assay: Fluorescence Cell-Free Homogeneous Dose Retest to Identify Inhibitors of RecA-Intein Splicing Activity. [Related pubchem assays (depositor defined):AID2097, AID2223, AID489010, AID492950]; format: functional
T1 sequence (P9WHJ3 whole entry): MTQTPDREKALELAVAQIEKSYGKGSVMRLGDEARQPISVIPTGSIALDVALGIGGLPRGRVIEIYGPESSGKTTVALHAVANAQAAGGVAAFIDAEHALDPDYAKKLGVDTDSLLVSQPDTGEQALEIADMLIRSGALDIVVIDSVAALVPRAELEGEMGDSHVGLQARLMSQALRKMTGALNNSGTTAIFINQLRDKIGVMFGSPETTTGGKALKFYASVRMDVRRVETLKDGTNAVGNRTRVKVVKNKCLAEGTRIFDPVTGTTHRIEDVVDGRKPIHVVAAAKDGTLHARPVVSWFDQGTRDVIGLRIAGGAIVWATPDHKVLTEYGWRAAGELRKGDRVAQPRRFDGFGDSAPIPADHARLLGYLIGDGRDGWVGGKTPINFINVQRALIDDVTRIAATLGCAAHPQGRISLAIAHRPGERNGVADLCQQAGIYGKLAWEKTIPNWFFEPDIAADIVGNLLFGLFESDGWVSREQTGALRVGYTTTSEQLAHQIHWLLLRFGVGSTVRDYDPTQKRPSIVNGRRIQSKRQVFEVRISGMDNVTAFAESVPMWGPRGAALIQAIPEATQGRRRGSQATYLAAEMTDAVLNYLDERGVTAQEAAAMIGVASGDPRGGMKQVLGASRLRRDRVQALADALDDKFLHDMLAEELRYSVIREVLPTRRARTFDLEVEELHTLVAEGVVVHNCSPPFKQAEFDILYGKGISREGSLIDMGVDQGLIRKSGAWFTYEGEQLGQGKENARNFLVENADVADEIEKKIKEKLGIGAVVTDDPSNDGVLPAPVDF

[1] = target: T2, Replicative DNA helicase DnaB (Mycobacterium tuberculosis, UniProt P9WMR3); assay: DnaB intein splicing inhibitors, dose response, biochemical, cell-free fluorescence (AID 449749); format: functional
T2 sequence (P9WMR3 whole entry): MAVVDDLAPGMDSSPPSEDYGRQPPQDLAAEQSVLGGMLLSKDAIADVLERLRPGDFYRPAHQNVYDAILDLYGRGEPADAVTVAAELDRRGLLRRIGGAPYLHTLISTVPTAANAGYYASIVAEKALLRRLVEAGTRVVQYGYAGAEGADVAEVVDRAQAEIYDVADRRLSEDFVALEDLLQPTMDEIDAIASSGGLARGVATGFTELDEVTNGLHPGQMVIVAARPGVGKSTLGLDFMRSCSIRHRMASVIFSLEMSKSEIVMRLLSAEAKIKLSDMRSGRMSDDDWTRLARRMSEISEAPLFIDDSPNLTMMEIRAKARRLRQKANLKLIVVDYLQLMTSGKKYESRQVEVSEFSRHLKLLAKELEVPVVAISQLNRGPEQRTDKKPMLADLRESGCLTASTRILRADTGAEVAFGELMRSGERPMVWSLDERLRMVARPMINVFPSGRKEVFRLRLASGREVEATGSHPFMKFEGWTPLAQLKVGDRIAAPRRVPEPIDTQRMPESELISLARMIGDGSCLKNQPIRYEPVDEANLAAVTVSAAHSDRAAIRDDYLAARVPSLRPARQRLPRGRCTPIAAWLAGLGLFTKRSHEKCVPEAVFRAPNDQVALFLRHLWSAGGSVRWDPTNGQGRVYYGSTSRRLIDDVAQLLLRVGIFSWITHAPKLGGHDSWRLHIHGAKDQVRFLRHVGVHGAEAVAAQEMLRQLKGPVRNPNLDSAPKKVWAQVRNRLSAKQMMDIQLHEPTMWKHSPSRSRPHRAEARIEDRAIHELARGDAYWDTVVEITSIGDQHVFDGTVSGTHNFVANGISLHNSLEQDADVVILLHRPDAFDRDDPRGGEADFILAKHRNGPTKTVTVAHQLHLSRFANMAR

[2] = target: FAD-linked sulfhydryl oxidase ALR (Homo sapiens, UniProt P55789); assay: ALR-catalysed DTT oxidation blockers – biochemical, H2O2 detection, luminescence, cherry-pick, dose response (AID 493248)
SN12K1 = assay: cells; format: functional; details: Homo sapiens
P388/ADR = assay: cells; format: functional; details: Mus musculus
P388 = assay: cells; format: functional; details: Mus musculus
[3] = non-specific 3'UTR reporter inhibition in Clone20-Shn3RL – cell-based, Renilla luciferase, cherry-picked, counter-screen for Shn3 inhibitor project, dose response (AID 624133); format: functional
[4] = reduction of Shn3 3'UTR-driven luciferase in osteoblasts – cell-based, Clone20 osteoblasts, firefly luciferase, cherry-picked, dose response (AID 624132); format: functional;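 note: firefly luciferase luminescence from reporter carrying the Shn3 3'UTR in osteoblasts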
[5] = loss of viability in HepG2 cells – cell-based, CellTiter-Glo, cherry-picked, cytotoxicity control for Shn3 inhibitor project, dose response (AID 624134); format: functional
[6] = Luminescence Cell-Based Dose Response HTS to Identify Inhibitors of 5'UTR Stem-Loop Driven Prion Protein mRNA Translation in H4 Neuroglioblastoma Cells. [Related pubchem assays: 1827 (Project Summary), 1813 (Primary HTS)]; format: functional
[7] = luciferase reporter signal suppression in cells – H4 neuroglioma cells, luminescence, dose response (AID 1990); format: functional, cell-based
[8] = alpha-synuclein stem-loop luciferase translation blockers – H4 neuroglioma cells, luminescence, confirmation (AID 1988); format: functional, cell-based
BJ [9] = assay: BJ-TERT fibroblast viability loss – cell-based, RAS-independent, luminescence, dose response (AID 1933); format: functional; details: Homo sapiens
BJ [10] = assay: cells; format: functional, cell-based; details: Homo sapiens
BJ [11] = assay: BJ-TERT-LT-ST fibroblast viability loss – cell-based, RAS-independent, luminescence, dose response (AID 1935); format: functional; details: Homo sapiens;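 note: BJ fibroblasts immortalized with TERT plus LT and ST oncogenes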
[12] = DRD fibroblast viability loss – cell-based, non-viral oncogenic, luminescence, dose response (AID 1934); format: functional; details: Homo sapiens
INS1 = assay: INS-1E survival protection against cytokine death – cell-based, luminescence, retest, dose response (AID 449756); format: functional; details: Rattus norvegicus;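 note: cell death triggered by IL-1 beta plus TNF-alpha plus IFN-gamma mixture; protective hits raise ATP signal compared with cytokine alone wells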

Sequence of FAD-linked sulfhydryl oxidase ALR (P55789 whole entry): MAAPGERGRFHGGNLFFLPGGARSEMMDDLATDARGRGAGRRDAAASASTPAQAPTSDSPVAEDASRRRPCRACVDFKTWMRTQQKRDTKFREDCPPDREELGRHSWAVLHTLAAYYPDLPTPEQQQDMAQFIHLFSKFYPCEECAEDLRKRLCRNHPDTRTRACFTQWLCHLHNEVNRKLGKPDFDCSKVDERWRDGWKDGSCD

**Q.** What does the source list for `O=C(CSc1nc2ccccc2nc1SCC(=O)N1CCOCC1)N1CCOCC1`?
**A.** EC50 (Protein RecA): > 380 µM (inactive); AC50 [1]: 194 µM (active)

**Q.** With `Sc1nc2ccc(Cl)cc2s1` as the compound, how does the AC50 [2] read?
**A.** The AC50 was 2.39 µM (active).

**Q.** With `CCCCNC(=O)c1ccc(CS(=O)(=O)c2ccc(C)cc2)o1` as the compound, how does the AC50 [2] read?
**A.** The AC50 was 15.6 µM (active).

**Q.** For `Cc1c(C2=NN=C(/N=N/c3c(O)cccc3O)/C2=C/c2ccccc2)c(=O)n(-c2ccccc2)n1C`, which GI50 (SN12K1) is on record?
**A.** Its GI50 is > 100 µM (inactive).

**Q.** What about the GI50 (P388/ADR) of the same compound?
**A.** Its GI50 is > 100 µM (inactive).

**Q.** What about the GI50 (P388) of the same compound?
**A.** Its GI50 is > 100 µM (inactive).

**Q.** For `CC(C)=CCc1c(O)ccc2c1OC1c3ccc(O)c(CC=C(C)C)c3OCC21` (centres undefined), which GI50 (SN12K1) is on record?
**A.** Its GI50 is 4.92 µM (inactive).

**Q.** What about the GI50 (P388/ADR) of the same compound?
**A.** The GI50 was 7.31 µM (inactive).

**Q.** And the GI50 (P388)?
**A.** Its GI50 is 5.55 µM (inactive).

**Q.** What does the source list for `Cc1ccc(C)c(NC(=O)CN(C)C(=O)c2cccc(S(=O)(=O)N3CCN(Cc4ccccc4)CC3)c2)c1`?
**A.** AC50 [3]: 5.74 µM (active); AC50 [4]: 3.5 µM (active); AC50 [5]: 62.2 µM (active)

**Q.** What does the source list for `COc1cccc(N2CCN(C(=O)c3ccc(C[S+]([O-])c4ccc(Cl)cc4)o3)CC2)c1` (centres undefined)?
**A.** EC50 [6]: 6.76 µM (active); AC50 [2]: 3.44 µM (active); EC50 [7]: 4.79 µM (inconclusive); EC50 [8]: 0.67 µM (active)

**Q.** Which GI50 (SN12K1) does the source give for `CCOC(=O)COc1ccccc1/C=C1\CCC(CN(C)C)C1=O` (centres undefined) here?
**A.** Its GI50 is 1.87 µM (inactive).

**Q.** What about the GI50 (P388/ADR) of the same compound?
**A.** The GI50 was 0.436 µM (active).

**Q.** And the GI50 (P388)?
**A.** Its GI50 is 0.342 µM (active).

**Q.** For `O=C(C1CCCCC1)N1CCN=C1SCc1cccnc1`, which AC50 [2] is on record?
**A.** Its AC50 is 0.097 µM (active).

**Q.** For `O=Cc1cccnc1SCc1ccccc1`, which EC50 (BJ [9]) is on record?
**A.** The EC50 was 10.5 µM (active).

**Q.** And the EC50 (BJ [10])?
**A.** Its EC50 is 16.3 µM (active).

**Q.** What about the EC50 (BJ [11]) of the same compound?
**A.** The EC50 was 11.1 µM (inconclusive).

**Q.** And the EC50 [12]?
**A.** Its EC50 is 21.3 µM (active).

**Q.** With `Cc1[nH]c2ccccc2c1/C=N/NC(=O)Cc1cccs1` as the compound, how does the AC50 [2] read?
**A.** The AC50 was 4.46 µM (active).

**Q.** With `CC1(C)S[C@@H]2[C@H](NC(=O)CCC[C@@H](N)C(=O)O)C(=O)N2[C@H]1C(=O)O` [ADICILLIN] as the compound, how does the GI50 (SN12K1) read?
**A.** The GI50 was > 50 µM (inactive).

**Q.** And the GI50 (P388/ADR)?
**A.** The GI50 was > 50 µM (inactive).

**Q.** And the GI50 (P388)?
**A.** The GI50 was > 50 µM (inactive).

**Q.** For `Cc1ccc(S(=O)(=O)N2CCN(c3ncnc4ccccc34)CC2)cc1`, which AC50 [3] is on record?
**A.** Its AC50 is 13.7 µM (active).

**Q.** And the AC50 [4]?
**A.** Its AC50 is 1.56 µM (active).

**Q.** And the AC50 (INS1)?
**A.** Its AC50 is 4.61 µM (active).

**Q.** What about the AC50 [5] of the same compound?
**A.** The AC50 was 4.03 µM (active).

**Q.** Which AC50 [2] does the source give for `O=C(NC1CC1)c1ccc(CSCc2ccccc2Cl)o1` here?
**A.** Its AC50 is 0.549 µM (active).

**Q.** What does the source list for `CC1(CO)C(O)CCC2(C)C1CCC1CC3CC12CCC3(O)CO` (centres undefined)?
**A.** GI50 (SN12K1): 1.16 µM (inactive); GI50 (P388/ADR): 0.42 µM (active); GI50 (P388): 0.394 µM (active)

**Q.** Which AC50 [2] does the source give for `CSCC[C@H](NC(=O)N1CCn2c1nc1ccccc12)C(=O)NCc1ccco1` here?
**A.** Its AC50 is 6.97 µM (active).

**Q.** With `COc1ccc(NC2CCCN(C(=O)c3cn(C)c4ccccc34)C2)cc1` (centres undefined) as the compound, how does the AC50 [2] read?
**A.** The AC50 was 3.1 µM (active).
